The values below come from patent publication US10473646B2, “In vitro culturing or expanding human or animal tissue” (UNIVERSITAETSSPITAL BASEL, priority 2014, dated 2019).

What all share (format): cell-based, human
Experiment [1] relates to Luminal A breast cancer tissue. As to the kind of experiment: Estrogen supplementation effect on in vitro culture of Luminal A breast cancer tissue chunks. The conditions noted are these: 200 ng/mL, medium with 10% autologous serum. The procedure: (§1) The system is tested mainly for colorectal cancer and Luminal A breast cancer. Thereby a tissue specimen is manually cut in small chunks at a size of 1 mm to 2 mm per side. The pieces are placed in between two collagen scaffolds having a diameter of 8 mm to create an assembly or “sandwich” that it is then placed in a perfusion chamber of the 3D perfusion bioreactor. For each bioreactor, 8-10 mL of culture media are used. The chunks are cultured for 10 to 20 days without medium change.
(§2) Thereby, essentially the same or similar methods and procedures are applied as described hereinbefore in connection with the second example directed to colorectal cancer tissue.
(§3) Luminal A breast cancer is defined as estrogen receptor (ER) positive, progesterone receptor (PR) positive, human epidermal growth factor receptor 2 (HER2) negative and with few proliferating tumor cells (low % of Ki67 positive cells). This type of tumor requires estrogen as growth factor for its survival and expansion. The downsized tissue or tissue chunks are cultured in a medium containing 10% of human autologous serum (AS), therefore receiving all the growth factors comprising the estrogen. […]
The estrogen supplementation effect on in vitro culture is evaluated. […]

Experiment [2] relates to Luminal A breast cancer tissue. As to the kind of experiment: In-vitro drug test on Luminal A breast cancer tissue chunks cultured in 3D perfusion bioreactor. Conditions: 100 nM, added at day 0 of bioreactor culture. The method, then:
as §1, §2, §3

For experiment [3], the system named is tumor infiltrating lymphocytes (TILs) in Luminal A Breast Cancer (MAM18). Description: PHA stimulation of tumor infiltrating lymphocytes in in vitro cultured tumor chunks (immunohistochemistry CD45, CD3, CD68). Conditions: 1 ng/mL added at day 0, 7 days. The method, then:
One important component of the tumor microenvironment is represented by the tumor infiltrating lymphocytes (TILs) that for some tumor types plays an important role by determining the patient prognosis and it is gaining a major attention in the so called cancer immune-therapy. By using PHA (Phytohemagglutinin), TILs are stimulated in their metabolic and proliferative activity, in order to understand if it was possible their stimulation inside the in vitro cultured tumor chunks. The PHA (1 ng/mL) is added at the beginning of the bioreactor culture (day 0).
These raise the possibility to study immunological question or test cancer immunotherapies on in vitro cultured tumor specimens.

On to 2-Estradiol, for which the “survival and proliferation of the tissue with extra estrogen supplementation (E+) versus without (E-)” value in experiment [1] is listed as “do not show any particular difference”.

As to `C[C@]12CC[C@@H]3c4ccc(O)cc4C[C@@H](CCCCCCCCC[S+]([O-])CCCC(F)(F)C(F)(F)F)[C@H]3[C@@H]1CC[C@@H]2O` (stereo partly drawn) [Fulvestrant], the “effect of anti-estrogen receptor drug treatment on in vitro cultured tumor tissue (FIG. 13)” value in experiment [2] is on record as “there is an effect”.

On to Phytohemagglutinin [PHA], for which, in experiment [3], the “presence of TILs after PHA treatment (CD45, CD3, CD68 staining, FIG. 14)” value is “the presence of TILs is still detectable”.
